Reference: PMC4213943 (ChemMedChem, 2014)

Target: G-actin (Prodan-G-actin; actin) (Oryctolagus cuniculus, UniProt P68135)
Assay: X-ray crystal structure
Format: binding
Settings: nucleotide site

With `Nc1ncnc2c1ncn2[C@@H]1O[C@H](COP(=O)(O)OP(=O)(O)O)[C@@H](O)[C@H]1O` [ADP] the X-ray crystal structure (actin co-crystallised with SF-01 or GC-04, Ca2+) was “complexes with GC-04 and SF-01 is occupied by ADP”.
In the case of `Nc1ncnc2c1ncn2[C@@H]1O[C@H](COP(=O)(O)OP(=O)(O)OP(=O)(O)O)[C@@H](O)[C@H]1O` [ATP], the X-ray crystal structure (actin co-crystallised with kabiramide C, Ca2+) is reported as “ATP is bound to the actin in the KabC complex”.
